Here are results for 3 compounds from patent publication US10189859B2, “Derivatives of 6-(2,3-dichlorophenyl)-1,2,4-triazin-5-amine” (Nektar Therapeutics, priority 2013, dated 2019).

Data set [1] in a line: Pharmacokinetics after intravenous or oral dosing, plasma LC/MS/MS. It counts as in vivo. Particulars: fasted male Sprague Dawley rats. On the procedure: Fasted, male Sprague Dawley rats were dosed intravenously or orally. Blood samples were collected at pre-determined time points and plasma was separated. Test article concentrations were determined in plasma by a LC/MS/MS method. Non compartmental analysis was performed to estimate the area under the plasma concentration vs. time curve (AUC). Clearance parameters (CL), bioavailabilities (F) and half-lives were calculated.

In a further data set the test system is AFP model. Put plainly: AFP animal model. Type of data set: in vivo. Particulars: for MED (mg/kg): minimum effective dose. The source says: (§1) The efficacy of the compounds when evaluated in additional well-known animal models, AFP, RR, and hyperalgesia, was also explored.
For another data set, the system named is RR model. As to the kind of experiment: RR animal model. Type of data set: in vivo.
Description: as §1

The subject of the next data set is Na+ channels. Put plainly: Blockage of Na+ channels, whole-cell patch clamp, isolated dorsal root ganglion cells. It counts as cell-based, rat. The method, then: Currents are measured using the whole-cell variant of the patch clamp method. INa is elicited by a pulse to −20 mV from a holding potential of −120 mV or −70 mV to measure blockade at the inactivated state (pulse duration of 40 ms), Peak inward current is measured for INa. Pacing rates of […] are examined. Increasing concentrations of test compounds are added to the cells in a cumulative manner to generate a concentration-response relationship which is utilized to calculate the IC50.
A general note: Patch clamp records ionic current or voltage across a cell membrane.

Data set [2] has as its target Nav1.7 sodium channels (human SCN9A gene) (Homo sapiens (Human), UniProt Q15858). As to the kind of experiment: Automated patch clamp (IonWorks Barracuda) of Nav1.7 stably expressed in CHO cells. It counts as cell-based. An outline of the steps:
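Whole-cell currents from CHO cells, holding −90 mV. Tonic block: 200 ms pre-pulse to −120 mV, step to 0 mV. Inactivated-state block: 20 ms at −100 mV then 20 ms at 0 mV. Percent block of peak inward Na+ current versus vehicle across concentrations gave IC50.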

[3] abbreviates: inactivated state block, CHO cells, read-out: Inactivated state IC50.

Values joined by “and” are separate entries in the source; they are usually repeats but may differ in a detail not shown here. Equal entries are not always repeated. Where two headings read alike, the source gives them in different places.

Chain of Nav1.7 sodium channels (human SCN9A gene) (Q15858 whole entry): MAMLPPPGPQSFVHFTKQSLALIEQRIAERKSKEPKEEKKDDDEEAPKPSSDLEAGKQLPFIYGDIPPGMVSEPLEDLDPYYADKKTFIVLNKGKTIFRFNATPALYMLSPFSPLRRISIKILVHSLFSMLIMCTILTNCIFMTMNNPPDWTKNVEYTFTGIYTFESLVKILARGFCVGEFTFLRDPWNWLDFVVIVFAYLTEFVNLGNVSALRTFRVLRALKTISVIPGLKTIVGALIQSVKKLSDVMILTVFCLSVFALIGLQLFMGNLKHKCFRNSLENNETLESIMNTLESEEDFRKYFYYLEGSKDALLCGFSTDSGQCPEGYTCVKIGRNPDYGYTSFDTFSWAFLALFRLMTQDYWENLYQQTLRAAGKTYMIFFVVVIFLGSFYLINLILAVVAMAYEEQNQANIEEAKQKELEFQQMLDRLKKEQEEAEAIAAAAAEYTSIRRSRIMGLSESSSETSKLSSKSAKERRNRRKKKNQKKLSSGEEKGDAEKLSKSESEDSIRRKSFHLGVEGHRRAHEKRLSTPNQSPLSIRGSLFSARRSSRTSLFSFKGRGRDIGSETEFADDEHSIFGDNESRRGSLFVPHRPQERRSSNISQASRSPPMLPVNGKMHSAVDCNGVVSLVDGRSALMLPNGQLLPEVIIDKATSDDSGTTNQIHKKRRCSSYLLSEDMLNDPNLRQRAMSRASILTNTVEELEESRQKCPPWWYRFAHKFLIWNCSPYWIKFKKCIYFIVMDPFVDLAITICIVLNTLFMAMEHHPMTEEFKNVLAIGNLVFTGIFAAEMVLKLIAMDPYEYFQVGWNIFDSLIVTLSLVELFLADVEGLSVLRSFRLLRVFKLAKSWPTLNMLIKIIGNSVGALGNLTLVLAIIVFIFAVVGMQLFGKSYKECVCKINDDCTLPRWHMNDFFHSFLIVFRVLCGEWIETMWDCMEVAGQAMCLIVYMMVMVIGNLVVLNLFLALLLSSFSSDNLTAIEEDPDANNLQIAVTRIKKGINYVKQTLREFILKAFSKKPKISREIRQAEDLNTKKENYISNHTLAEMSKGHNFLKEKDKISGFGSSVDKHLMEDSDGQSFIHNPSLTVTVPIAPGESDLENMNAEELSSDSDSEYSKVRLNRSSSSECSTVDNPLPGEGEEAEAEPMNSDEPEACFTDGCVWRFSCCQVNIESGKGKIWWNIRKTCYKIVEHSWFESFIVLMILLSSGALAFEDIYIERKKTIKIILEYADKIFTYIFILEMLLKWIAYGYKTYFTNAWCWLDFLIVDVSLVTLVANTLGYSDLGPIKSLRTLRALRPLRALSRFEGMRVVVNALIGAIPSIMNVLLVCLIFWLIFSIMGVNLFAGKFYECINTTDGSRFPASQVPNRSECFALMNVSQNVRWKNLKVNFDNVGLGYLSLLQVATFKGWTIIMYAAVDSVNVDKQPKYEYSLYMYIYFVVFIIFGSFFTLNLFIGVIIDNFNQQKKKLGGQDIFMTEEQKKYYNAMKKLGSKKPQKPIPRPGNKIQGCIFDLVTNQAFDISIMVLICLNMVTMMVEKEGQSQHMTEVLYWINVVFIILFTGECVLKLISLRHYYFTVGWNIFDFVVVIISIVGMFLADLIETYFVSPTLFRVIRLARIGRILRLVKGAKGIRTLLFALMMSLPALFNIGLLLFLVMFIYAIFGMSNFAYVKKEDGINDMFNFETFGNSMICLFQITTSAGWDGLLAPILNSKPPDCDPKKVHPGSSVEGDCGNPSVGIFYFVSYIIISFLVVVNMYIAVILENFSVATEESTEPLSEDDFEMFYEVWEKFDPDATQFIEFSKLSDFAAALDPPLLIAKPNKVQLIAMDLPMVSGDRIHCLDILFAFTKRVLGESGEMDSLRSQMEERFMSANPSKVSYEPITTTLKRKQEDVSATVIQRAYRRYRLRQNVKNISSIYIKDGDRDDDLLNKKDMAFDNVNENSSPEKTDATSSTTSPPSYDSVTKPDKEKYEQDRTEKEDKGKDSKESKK

Regarding `Nc1nc(NCCOCCOC(F)(F)F)nnc1-c1cccc(Cl)c1Cl` [Compound 45, 6-(2,3-Dichlorophenyl)-N^3-(2-(2-(trifluoromethoxy)ethoxy)ethyl)-1,2,4-triazine-3,5-diamine], the “exposure after oral dosing (qualitative ranking)” value (shortened to “exposure after oral dosing”) in data set [1] is “best exposure after oral dosing”. The “MED (mg/kg)” value with AFP model (AFP, Ph 2, timepoint 0.25 h) is listed as 30 (Ph 2) mg/kg. Besides, the ED50 – broadly, the midpoint of the dose-response relation – with AFP model (AFP, Ph 2, timepoint 0.25 h, read-out: ED50) was found to be 46.8 mg/kg; in the data set on RR model (0.5 h), 21 mg/kg; with RR model (1 h) it was 18.9 mg/kg. Also, the “MED” value in the data set on RR model (timepoints 0.5, 1 h, minimum effective dose) turned out to be 30 mg/kg.
As for `COC[C@@H](O)CN1CCN(c2nnc(-c3cccc(Cl)c3Cl)c(N)n2)CC1` [Compound 97, (S)-1-(4-(5-amino-6-(2,3-dichlorophenyl)-1,2,4-triazin-3-yl)piperazin-1-yl)-3-methoxypropan-2-ol], the IC50 (usually the point on the concentration scale where inhibition reaches its midpoint) with Na+ channels (Vh −70 mV (inactivated state), pacing 0.1 Hz, read-out: IC50 (μM) 0.1 Hz) is 39.5 µM; in the data set with Na+ channels (Vh −70 mV (inactivated state), pacing 3 Hz, read-out: IC50 (μM) 3 Hz) it was 21.5 µM; in the data set on Na+ channels (Vh −70 mV (inactivated state), pacing 10 Hz, read-out: IC50 (μM) 10 Hz), 16.5 µM; in the data set on Na+ channels (Vh −120 mV, pacing 0.1 Hz, read-out: IC50 (μM) 0.1 Hz), greater than 100 µM; in the data set on Na+ channels (Vh −120 mV, pacing 3 Hz, read-out: IC50 (μM) 3 Hz), greater than 100 µM; in the data set on Na+ channels (Vh −120 mV, pacing 10 Hz, read-out: IC50 (μM) 10 Hz), 74.4 µM. In addition, the IC50 is 90.5 µM in data set [2] (setting [3]); < 50 µM and 82.2 µM in data set [2] (read-out: Inactivated state IC50); greater than 200 µM in data set [2] (read-out: Tonic state IC50). The “pharmacokinetics (qualitative ranking of the compounds tested)” value in data set [1] was “most favorable pharmacokinetics”. In addition, the “exposure after oral dosing” value in data set [1] is recorded as “best exposure after oral dosing”.
On to `Nc1nc(N2CCN(C[C@H](O)CCl)CC2)nnc1-c1cccc(Cl)c1Cl` [Compound 207, (S)-1-(4-(5-amino-6-(2,3-dichlorophenyl)-1,2,4-triazin-3-yl)piperazin-1-yl)-3-chloropropan-2-ol], for which the IC50 in data set [2] (setting [3]) is 107 µM and 133 µM; in data set [2] (tonic (resting) state block, CHO cells, read-out: Tonic state IC50) it was greater than 200 µM. In addition, the “exposure after oral dosing” value in data set [1] is on record as “best exposure after oral dosing”. The compound further registered an ED50 in the data set on AFP model (0.5 h) of 476 mg/kg. The “MED (mg/kg)” value with AFP model (AFP, Ph 2, timepoint 0.5 h) is 300 (Ph 2) mg/kg.
